# Source: ChEMBL document CHEMBL5244272 (Eur J Med Chem, 2021)
# What was measured:
# Assay type in all cases: functional, organism-based
# [1] = test system: Plasmodium falciparum; assay: Antimalarial activity against Plasmodium falciparum NF54
# [2] = test system: Plasmodium falciparum; assay: Antimalarial activity against Plasmodium falciparum W2
# [3] = test system: Plasmodium falciparum; assay: Antimalarial activity against Plasmodium falciparum D6
# [4] = test system: Plasmodium falciparum; assay: Antimalarial activity against Plasmodium falciparum 3D7
# [5] = test system: Plasmodium falciparum; assay: Antimalarial activity against Plasmodium falciparum D10
# [6] = test system: Plasmodium falciparum; assay: Antimalarial activity against Plasmodium falciparum K1; conditions: for EC50: read-out: EC50
SMILES,IC50 [2],IC50 [3],also measured
CC1=C(C(=O)c2ccccc2)O[C@@H]2O[C@]3(C)CC[C@H]4[C@H](C)CC[C@@H]1[C@@]24OO3,,,IC50 [1]: 4.6 nM
C[C@@H]1CC[C@H]2[C@@H](CCCc3ccc(Cl)cc3)C(=O)O[C@@H]3O[C@]4(C)CC[C@@H]1[C@]32OO4,2.6 ng/mL,1.9 ng/mL,
CS(=O)(=O)N1CCN(CCOc2ccc(C3CCC4(CC3)OOC3(OO4)C4CC5CC(C4)CC3C5)cc2)CC1 (configuration not stated),,,IC50 [4]: 3.5 nM
C[C@@H]1CCCCC12OOC1(CCCC[C@@H]1C)OO2 (some centres not stated) [WR-148999],7.3 nM,8.4 nM,
C[C@H]1[C@H](N2CCN([C@@H]3O[C@H](CO)[C@@H](O)[C@H](O)[C@H]3O)CC2)O[C@@H]2O[C@]3(C)CC[C@H]4[C@H](C)CC[C@@H]1[C@@]24OO3,0.71 nM,,IC50 [5]: 0.87 nM
COC(=O)CC[C@@H](C)[C@H]1CCC2C3CC[C@@H]4CC5(CC[C@]4(C)C3C[C@H](OC(C)=O)[C@@]21C)OOC(C)(C)OO5 (some centres not stated),,,IC50 [6]: 3 nM
CCCCNC(=O)CCC(C)[C@H]1CCC2C3C(C[C@H](OC(C)=O)[C@@]21C)[C@@]1(C)CC[C@]2(C[C@@H]1C[C@H]3OC(C)=O)OO[C@@]1(CC[C@@H]3C[C@@H](OC(C)=O)C4C5CC[C@H](C(C)CCC(=O)NCCCC)[C@@]5(C)[C@@H](OC(C)=O)CC4[C@@]3(C)C1)OO2 (some centres not stated),,9.29 nM,
C[C@H]1[C@H](N2CCNCC2)O[C@@H]2O[C@]3(C)CC[C@H]4[C@H](C)CC[C@@H]1[C@@]24OO3,,,IC50 [1]: 3.2 nM
C[C@H]1[C@H](Nc2ccc(Br)cc2)O[C@@H]2O[C@]3(C)CC[C@H]4[C@H](C)CC[C@@H]1[C@@]24OO3,0.23 ng/mL,0.23 ng/mL,
CCCCCCCCS(=O)(=O)N1C(=O)[C@H](C)[C@@H]2CC[C@@H](C)[C@@H]3CC[C@]4(C)OO[C@]32[C@H]1O4,,,IC50 [4]: 2.1 ng/mL; IC50 [6]: 1.1 ng/mL
CCCC[C@H]1O[C@@H]2O[C@]3(C)CC[C@H]4[C@H](C)CC[C@@H]([C@H]1C)[C@@]24OO3,0.16 ng/mL,0.41 ng/mL,
C[C@@H]1CC[C@H]2[C@@H](C)C(=O)N(C(=O)c3ccc([N+](=O)[O-])cc3)[C@@H]3O[C@]4(C)CC[C@@H]1[C@@]23OO4,,,IC50 [4]: 0.45 ng/mL; IC50 [6]: 0.6 ng/mL
C[C@H]1[C@@H](O[C@H](CCC(=O)O)c2ccc(Cl)cc2)O[C@@H]2O[C@]3(C)CC[C@H]4[C@H](C)CC[C@@H]1[C@@]24OO3,0.357 ng/mL,0.38 ng/mL,
C=C(c1ccc(F)cc1F)C1COC2(OO1)C1CC3CC(C1)CC2C3 (configuration not stated),,,IC50 [4]: 25.7 nM
c1cc(C2CCC3(CC2)OOC2(OO3)C3CC4CC(C3)CC2C4)ccc1OCCNC1CCOCC1 (configuration not stated),,,IC50 [4]: 0.5 nM
COC(=O)CC[C@@H](C)[C@H]1CCC2C3CC[C@@H]4CC5(CC[C@]4(C)C3C[C@H](OC(C)=O)[C@@]21C)OOC(C)(C(F)(F)F)OO5 (some centres not stated),,,IC50 [6]: 7.6 nM
C[C@H]1[C@@H](OCc2ccc(C(=O)O)cc2)O[C@@H]2O[C@@]3(C)CC[C@H]4[C@H](C)CC[C@@H]1[C@@]24OO3,1.38 ng/mL,4.07 ng/mL,
Cc1ccccc1COC12CCCC(C1)C(C)(C)OO2 (configuration not stated),630 nM,,IC50 [5]: 740 nM
CC1(C)OOC2(OCCCC34CC5CC(CC(C5)C3)C4)CCCC1C2 (configuration not stated),160 nM,,IC50 [5]: 240 nM
C[C@H]1[C@H](NS(N)(=O)=O)O[C@@H]2O[C@]3(C)CC[C@H]4[C@H](C)CC[C@@H]1[C@@]24OO3,2.04 nM,,IC50 [1]: 3.1 nM; IC50 [6]: 1.79 nM
C[C@@H]1CC[C@H]2[C@@H](C)C(=O)N(C(=O)Cc3ccc([N+](=O)[O-])cc3)[C@@H]3O[C@]4(C)CC[C@@H]1[C@@]23OO4,,,IC50 [4]: 0.6 ng/mL; IC50 [6]: 0.4 ng/mL
CCCCNC(=O)CCC(C)[C@H]1CCC2C3C(C[C@H](OC(C)=O)[C@@]21C)[C@@]1(C)CC[C@]2(C[C@@H]1C[C@H]3OC(C)=O)OO[C@@]1(CC[C@]3(C)C4C[C@H](OC(C)=O)[C@@]5(C)C(CC[C@@H]5C(C)CCC(=O)NCCCC)C4[C@H](OC(C)=O)C[C@H]3C1)OO2 (some centres not stated),,20.1 nM,
CC1(C)OOC2(OCCc3ccccc3)CCCC1C2 (configuration not stated),250 nM,,IC50 [5]: 670 nM
C[C@H]1[C@@H](OCc2ccc(C(=O)N(CCNc3ccnc4cc(Cl)ccc34)CC(=O)NC(C)(C)C)cc2)O[C@@H]2O[C@]3(C)CC[C@H]4[C@H](C)CC[C@@H]1[C@@]24OO3,,,IC50 [5]: 27 nM; IC50 [6]: 19 nM
C[C@H]1[C@H](Nc2ccc(I)cc2)O[C@@H]2O[C@]3(C)CC[C@H]4[C@H](C)CC[C@@H]1[C@@]24OO3,0.33 ng/mL,0.33 ng/mL,
COC(=O)CC(C)CO[C@H]1O[C@@H]2O[C@]3(C)CC[C@H]4[C@H](C)CC[C@@H]([C@H]1C)[C@@]24OO3 (some centres not stated),0.48 ng/mL,1.91 ng/mL,
C[C@H]1[C@H](N2CCN([C@@H]3O[C@H](CO)[C@H](O)[C@H]3O)CC2)O[C@@H]2O[C@]3(C)CC[C@H]4[C@H](C)CC[C@@H]1[C@@]24OO3,0.58 nM,,IC50 [5]: 0.66 nM
C[C@@H]1CCC[C@@H](C)C12OOC1(OO2)[C@@H](C)CCC[C@@H]1C,> 1000 nM,> 1000 nM,

SMILES,IC50 [2],IC50 [3],also measured
C[C@@H]1CC[C@H]2[C@@H](CCCc3ccccc3)C(=O)O[C@@H]3O[C@]4(C)CC[C@@H]1[C@]32OO4,1.35 ng/mL,0.9 ng/mL,
C[C@H]1[C@@H](O[C@@H]2O[C@H](CO)[C@@H](O)[C@H](O)[C@H]2O)O[C@@H]2O[C@]3(C)CC[C@H]4[C@H](C)CC[C@@H]1[C@@]24OO3,0.19 ng/mL,2.48 ng/mL,
C[C@H]1[C@@H](Nc2cccc(F)c2)O[C@@H]2O[C@]3(C)CC[C@H]4[C@H](C)CC[C@@H]1[C@@]24OO3,< 0.16 ng/mL,< 0.16 ng/mL,
C[C@@H]1CC[C@H]2[C@@H](C)C(=O)N(S(=O)(=O)c3ccc4ccccc4c3)[C@@H]3O[C@]4(C)CC[C@@H]1[C@@]23OO4,,,IC50 [4]: 2.8 ng/mL; IC50 [6]: 0.2 ng/mL
CCCCC(=O)C1=C(C)[C@@H]2CC[C@@H](C)[C@@H]3CC[C@]4(C)OO[C@@]23[C@H](O1)O4,,,IC50 [1]: 4.3 nM
C[C@@H]1CC[C@H]2[C@H](C[C@@]3(CCCCCCC[C@]4(C[C@@H]5C(=O)O[C@@H]6O[C@]7(C)CC[C@H]8[C@H](C)CC[C@@H]5[C@@]68OO7)C(=O)O[C@@H]5O[C@]6(C)CC[C@H]7[C@H](C)CC[C@@H]4[C@@]57OO6)C(=O)O[C@@H]4O[C@]5(C)CC[C@H]6[C@H](C)CC[C@@H]3[C@@]46OO5)C(=O)O[C@@H]3O[C@]4(C)CC[C@@H]1[C@]32OO4,,,EC50 [6]: 5.8 nM
C[C@@H]1CC[C@H]2[C@H](C[C@@]3(CCCCCCCC4C(=O)O[C@@H]5O[C@]6(C)CC[C@H]7[C@H](C)CC[C@@H]4[C@@]57OO6)C(=O)O[C@@H]4O[C@]5(C)CC[C@H]6[C@H](C)CC[C@@H]3[C@@]46OO5)C(=O)O[C@@H]3O[C@]4(C)CC[C@@H]1[C@]32OO4 (some centres not stated),,,EC50 [6]: 3.1 nM
CC1(C)OOC2(OCCC34CC5CC(CC(C5)C3)C4)CCCC1C2 (configuration not stated),440 nM,,IC50 [5]: 580 nM
CC1(C)OOC2(OCc3ccccc3)CCCC1C2 (configuration not stated),430 nM,,IC50 [5]: 800 nM
C[C@H]1[C@H](Nc2ccccc2)O[C@@H]2O[C@]3(C)CC[C@H]4[C@H](C)CC[C@@H]1[C@@]24OO3,0.66 ng/mL,0.66 ng/mL,
COC(=O)Nc1nc2cc(C(=O)c3ccccc3)ccc2n1C(=O)O[C@H]1O[C@@H]2O[C@]3(C)CC[C@H]4[C@H](C)CC[C@@H]([C@H]1C)[C@@]24OO3,,,IC50 [4]: 6.86 nM
CC1=C(C(O)(c2ccccc2)c2ccccc2)O[C@@H]2O[C@]3(C)CC[C@H]4[C@H](C)CC[C@@H]1[C@@]24OO3,,,IC50 [1]: 4.5 nM
CCCCCCCC[C@H]1CCC2C3CC[C@H]4C[C@]5(CC[C@]4(C)C3CC[C@@]21C)OO[C@]1(CC[C@@H]2CCC3C4CC[C@H](CCCCCCCC)[C@@]4(C)CCC3[C@@]2(C)C1)OO5 (some centres not stated),,155 nM,
CCN(CC)Cc1ccc(C(C)O[C@H]2O[C@@H]3O[C@]4(C)CC[C@H]5[C@H](C)CC[C@@H]([C@H]2C)[C@@]35OO4)cc1O (some centres not stated),,,IC50 [1]: 0.36 ng/mL; IC50 [6]: 0.18 ng/mL
C[C@@H]1CC[C@H]2[C@@H](C)C(=O)N(S(=O)(=O)c3cccc([N+](=O)[O-])c3)[C@@H]3O[C@]4(C)CC[C@@H]1[C@@]23OO4,,,IC50 [4]: 2.1 ng/mL; IC50 [6]: 2.2 ng/mL
C[C@H]1[C@H](N2CCN([C@@H]3O[C@@H](C)[C@H](O)[C@@H](O)[C@H]3O)CC2)O[C@@H]2O[C@]3(C)CC[C@H]4[C@H](C)CC[C@@H]1[C@@]24OO3,0.74 nM,,IC50 [5]: 0.74 nM
C[C@H]1[C@@H](O[C@H](CCC(=O)O)c2ccc(Br)cc2)O[C@@H]2O[C@]3(C)CC[C@H]4[C@H](C)CC[C@@H]1[C@@]24OO3,0.313 ng/mL,0.405 ng/mL,
C[C@@H]1CC[C@H]2[C@@H](CCCc3cc(C(F)(F)F)cc(C(F)(F)F)c3)C(=O)O[C@@H]3O[C@]4(C)CC[C@@H]1[C@]32OO4,7.11 ng/mL,0.78 ng/mL,IC50 [6]: 4.06 ng/mL
CC(C)OC[C@H]1O[C@@H](O[C@H]2O[C@@H]3O[C@]4(C)CC[C@H]5[C@H](C)CC[C@@H]([C@H]2C)[C@@]35OO4)[C@H](O)[C@@H](O)[C@@H]1OC(C)C,0.31 ng/mL,1.43 ng/mL,
C[C@@H]1CC[C@H]2[C@@H](CCCc3cc(F)cc(F)c3)C(=O)O[C@@H]3O[C@]4(C)CC[C@@H]1[C@]32OO4,6.5 ng/mL,0.82 ng/mL,IC50 [6]: 3.2 ng/mL
C[C@@H]1CC[C@H]2[C@@H](C)C(=O)N(S(=O)(=O)c3ccc(C(F)(F)F)cc3)[C@@H]3O[C@]4(C)CC[C@@H]1[C@@]23OO4,2.39 nM,,IC50 [1]: 2.04 nM; IC50 [6]: 3.15 nM
CS(=O)(=O)N1CCN(CCCOc2ccc(C3CCC4(CC3)OOC3(OO4)C4CC5CC(C4)CC3C5)cc2)CC1 (configuration not stated),,,IC50 [4]: 3.7 nM
C[C@@H]1CC[C@H]2[C@@H](C)C(=O)N(C(=O)c3cccc([N+](=O)[O-])c3)[C@@H]3O[C@]4(C)CC[C@@H]1[C@@]23OO4,,,IC50 [4]: 0.46 ng/mL; IC50 [6]: 0.6 ng/mL
C[C@@H]1CC[C@H]2[C@H](C[C@@]3(CCCCCC[C@]4(C[C@@H]5C(=O)O[C@@H]6O[C@]7(C)CC[C@H]8[C@H](C)CC[C@@H]5[C@@]68OO7)C(=O)O[C@@H]5O[C@]6(C)CC[C@H]7[C@H](C)CC[C@@H]4[C@@]57OO6)C(=O)O[C@@H]4O[C@]5(C)CC[C@H]6[C@H](C)CC[C@@H]3[C@@]46OO5)C(=O)O[C@@H]3O[C@]4(C)CC[C@@H]1[C@]32OO4,,,EC50 [6]: 20 nM
CC1(C)CCCCC12OOC1(CCCCC1(C)C)OO2 (configuration not stated),> 1000 nM,> 1000 nM,
CC1(C)OOC2(OCC34CC5CC(CC(C5)C3)C4)CCCC1C2 (configuration not stated),270 nM,,IC50 [5]: 330 nM
C[C@@H]1CC[C@H]2[C@@H](C)C(=O)N(S(=O)(=O)c3cccc4cccnc34)[C@@H]3O[C@]4(C)CC[C@@H]1[C@@]23OO4,,,IC50 [4]: 1.9 ng/mL; IC50 [6]: 2 ng/mL
